Data: patent US20060040911A1, “Method for preventing and/or treating the cardiovascular and hepatic diseases induced by hyperlipidemia which comprises administered an effective amount of bioflavonoids extract derived from fructus crataegus (lipid metabolism and fructus crataegus)” (priority 2003, published 2006)

Columns and labels:
[1] = tested on: thoracic aorta of rabbits fed 1% cholesterol diet; experiment: Analysis for fatty streak deposition in thoracic aorta; format: in vivo, rabbit; conditions: microscopic pictures, 1% cholesterol plus 0.15% bioflavonoid or 1.5 mg/kg simvastatin, control: thick layer
Procedure: The chest wall of each rabbit (sacrificed in Step B) was incised, a portion of thoracic aorta from 1 cm site above aortic valve downward for 5 cm was cut out. The surrounding fatty tissues were removed, the aorta was incised longitudinally and pinned to a dish. The moist aorta was then photographed, and staining of fatty streak was carried out with the method described by Esper, E. et al. (Journal of Lab. Clinical Medicine; 121, pp 103-110(1993)) as follows.
The opened portion of aortas were pinned to a wooden tongue depressor, washed three times for 2 minutes with anhydrous propylene glycol and stained for 30 minutes with saturated solution of Oil Red O dissolved in propylene glycol. Then the aortas were washed twice for 3 minutes with 85% propylene glycol, to remove remaining staining solution by washing with normal saline solution. The aortas were photographed, and the photographs were traced with an image analyzer (LEICA, Q-600, Germany), and the area of stained portion were fatty streak region, its proportion in percentile (%) to the total aorta area were calculated.

[2] = tested on: liver of rabbits fed 1% cholesterol diet; experiment: Fatty degeneration in the liver of the rabbits; format: in vivo, rabbit; conditions: 1% cholesterol plus 0.15% bioflavonoid or 1.5 mg/kg Simvastatin
Source text: According to the report of Fogt F. and Nanji A., (Toxicology and Applied Pharmacology; 136, pp 87-93, 1996) and Keegan A. et al., (Journal of Hepatology; 23, pp 591-600, 1995). […]

ICR female mice = conditions: single oral dose (rutin 1500, quercetin 125, kaempherol 1000, vitexin 500 mg/kg), observed 30 days
3-HMG-CoA reductase = biological target: T1, 3-HMG-CoA reductase (Oryctolagus cuniculus, UniProt Q29512); experiment: Activity of 3-HMG-CoA reductase in liver microsomes (modified Hulcher's method); format: biochemical, rabbit; conditions: liver microsomes of rabbits fed 8 weeks 1% cholesterol plus 0.15% bioflavonoid; control group 0%
T1 construct: ultracentrifuged at 100,000 times gram for 60 minutes and again for another 60 minutes to obtain microsomal precipitates; from tissue; host or cells: rabbit liver microsomes
T1 sequence (Q29512 1-888): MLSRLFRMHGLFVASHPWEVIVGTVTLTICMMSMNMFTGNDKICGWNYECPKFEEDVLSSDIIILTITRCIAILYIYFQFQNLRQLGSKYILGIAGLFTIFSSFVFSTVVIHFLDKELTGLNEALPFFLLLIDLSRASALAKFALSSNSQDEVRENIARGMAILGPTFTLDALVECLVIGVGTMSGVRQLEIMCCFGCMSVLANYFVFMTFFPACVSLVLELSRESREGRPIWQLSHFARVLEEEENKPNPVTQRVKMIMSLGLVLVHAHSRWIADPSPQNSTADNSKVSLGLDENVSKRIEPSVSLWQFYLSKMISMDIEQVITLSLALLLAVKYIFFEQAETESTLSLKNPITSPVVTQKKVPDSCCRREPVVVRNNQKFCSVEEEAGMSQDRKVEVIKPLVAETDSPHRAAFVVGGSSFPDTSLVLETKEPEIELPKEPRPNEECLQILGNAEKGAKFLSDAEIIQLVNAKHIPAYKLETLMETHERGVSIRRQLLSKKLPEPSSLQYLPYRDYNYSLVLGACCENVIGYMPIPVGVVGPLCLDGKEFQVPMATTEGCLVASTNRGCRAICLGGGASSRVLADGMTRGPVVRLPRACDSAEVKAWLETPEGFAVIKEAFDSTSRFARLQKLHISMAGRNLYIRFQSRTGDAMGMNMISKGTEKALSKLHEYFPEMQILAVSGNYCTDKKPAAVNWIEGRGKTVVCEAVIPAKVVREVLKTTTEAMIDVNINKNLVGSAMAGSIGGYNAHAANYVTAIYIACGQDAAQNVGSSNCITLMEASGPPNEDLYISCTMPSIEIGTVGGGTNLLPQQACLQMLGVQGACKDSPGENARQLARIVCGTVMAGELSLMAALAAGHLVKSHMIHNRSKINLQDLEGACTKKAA
Procedure: The activity of 3-HMG-CoA reductase was determined by modified Hulcher's method (Journal of lipid research; 14, 625-641, 1973), in which the concentration of Co-A will be produced when 3-HMG-CoA is reduced to mevalonate salt by the action of the 3-HMG-CoA reductase; then the reductase was determined by spectroscopy and the activity of the 3-HMG-CoA reductase was calculated.
Liver tissues from each group of rabbits from Example 4 Step B were obtained, 3 gram of tissue was washed with 100 ml of cold normal saline (1 N NaCl) and 100 ml of cold buffer solution-A (0.1M triethanolamine HCl/10 mM EDTA/10 mM dithiothreitol (DTT)). A cold buffered solution-A and liver tissue ratio was 2 ml per each gram. Then the mixture was minced and homogenized with a homogenizer, the homogenate was centrifuged at 20,000 times gram for 15 minutes, the supernatant was ultracentrifuged at 100,000 times gram for 60 minutes and again for another 60 minutes to obtain microsomal precipitates. The precipitates were washed with cold buffer solution-A and kept at minus 70 degree C. till ready for analysis.
There were 3 reactive substrates used in this assay (a) buffer solution B; 0.1 M triethanolamine HCl/10 mM EDTA with ph 7.4 (b) 3-HMG-CoA solution; 150 mu.moles/culture medium, (c) NADPH solution; 2 mu.moles/culture medium.
The microsomal suspension was then mixed with reaction substrates in a centrifuge tube and allowed to react at 37 degree C. for 30 minutes, then added with 20 mu 1 of 10 mM sodium arsenous solution and allowed to react for 1 minute, and then added with 100 µl of citrate buffer solution (2M sodium citrate/3 M sodium tungstate, with Ph of 3.5) at 37 degree C. for 10 minutes, then centrifuged at 30,000 times gram for 15 minutes to remove protein. […]
The mixture was then added with 20 µl of DTNB buffer solution (3 mM DTNB/0.1M triethanolamine/10 mM EDTA with PH of 7.4). The absorbance of this mixture was determined at wave length of 412 nm to calculate the amount of CoA that is the activity of 3-HMG-CoA reductase.

| SMILES | macrophage lipid cell complex in the aorta walls (FIGS. IB-IF) [1] | microscopic features of the liver (FIGS. 2B-2F) [2] | survival (ICR female mice) | Inhibition on the activity of 3-HMG-CoA reductase in percentage (%) (3-HMG-CoA reductase) | body weight (ICR female mice) |
| --- | --- | --- | --- | --- | --- |
| O=c1c(O)c(-c2ccc(O)cc2)oc2cc(O)cc(O)c12 [Kaempherol, 3,5,7,4′ tetra-hydroxy-flavone] | no or a very thin layer of macrophage lipid cell complex | almost all of the liver cells are normal without containing fat particles | alive at day 31 | – | – |
| O=c1c(O)c(-c2ccc(O)c(O)c2)oc2cc(O)cc(O)c12 [Quercetin, 3,5,7,3′,4′ penta-hydroxy flavone] | no or a very thin layer of macrophage lipid cell complex | almost all of the liver cells are normal without containing fat particles | alive at day 31 | 32 | – |
| C[C@@H]1O[C@@H](OC[C@H]2O[C@@H](Oc3c(-c4ccc(O)c(O)c4)oc4cc(O)cc(O)c4c3=O)[C@H](O)[C@@H](O)[C@@H]2O)[C@H](O)[C@H](O)[C@H]1O [Rutin, quercetin-3-rutinoside] | – | – | alive at day 31 | 45 | no body weight loss |
| O=c1cc(-c2ccc(O)cc2)oc2c(C3O[C@H](CO)[C@@H](O)[C@H](O)[C@H]3O)c(O)cc(O)c12 (stereo partly drawn) [Vitexin, 8-D-glucosyl-4′,5,7 trihydroxy-flavone] | no or a very thin layer of macrophage lipid cell complex | almost all of the liver cells are normal without containing fat particles | alive at day 31 | 30 | no body weight loss |
